The source of these data is paper PMC6225474, “Polypyridyl Zinc(II)-Indomethacin Complexes with Potent Anti-Breast Cancer Stem Cell Activity” (Molecules : A Journal of Synthetic Chemistry and Natural …, 2018).

Usually IC50 stands for the concentration at which inhibition is half-maximal. The LogP is the decadic logarithm of the partition coefficient of the neutral form, usually between octanol and water.

Data set [1] concerns HMLER cells. Particulars: MTT, 72 h incubation; cited from earlier work.
In data set [2] the test system is HMLER-shEcad cells. Particulars: cited from earlier work; for IC50: MTT, 72 h incubation.
Data set [3] concerns HMLER cells. Nature of the data set: MTT assay, bulk breast cancer cells (HMLER). Particulars: 72 h incubation. The format is cell-based, human. The procedure:
(§1) HEK 293T human embryonic kidney cells purchased from American Type Culture Collection (ATCC, Manassas, VA, USA) were grown in DMEM (Dulbecco’s Modified Eagle’s Medium) with FBS (fetal bovine serum, 10%), and penicillin/streptomycin (1%). Human mammary epithelial CSC-depleted HMLER and human mammary epithelial CSC-enriched HMLER-shEcad cells were obtained from Prof. R.A. Weinberg (Whitehead Institute, MIT). These cells were grown in MEGM (Mammary Epithelial Cell Growth Medium) with BPE, hydrocortisone, hEGF, insulin, and gentamicin/amphotericin-B. All of the cells used in this study were cultured at 37 °C within a humidified incubator with a CO2 controller to maintin CO2 levels at 5%.
(§2) On day 1, 5000 cells (of the appropriate cell line) were plated in each well of a 96-well plate. The cells were then left to attach to the bottom of the wells overnight. On day 2, the compounds of interest were added (at different concentrations, 0.2–100 μM). The cells were incubated with the compounds for 72 h. The volume of each well at this stage was 200 μL. If DMSO was used to aid solubilization of the compounds, then the same amount of DMSO was also present in control wells. […] The absorption of each well was measured using a plate reader at 550 nm. […]

For data set [4], the system named is HMLER-shEcad mammospheres. Nature of the data set: Mammosphere viability assay (TOX8). Particulars: TOX8, 5 days (120 h) incubation. The format is cell-based, human. Here is the method: (§3) On day 1, 5000 HMLER-shEcad cells were seeded into each well of a 96-well ultralow-attachment plate. The culture media used was MEGM with B27 (Invitrogen), 20 ng/mL EGF, and 4 μg/mL heparin (Sigma). Compounds of interest were added to the HMLER-shEcad cells at various concentrations (0–133 μM), and the suspensions were incubated for 5 days. On day 6, the mammospheres were imaged and counted using a standard microscope. Afterwhich, TOX8 (Sigma) (20 µL) was added to each well and incubated for 16 h. On day 7, the solutions in each well were transferred to a black 96-well plate and the fluorescence was measured using a plate reader, 590 nm (λex = 560 nm). The arbitrary fluorescence values were normalised with respect to control wells (containing DMSO), and dose–response curves were plotted to determine the IC50 values. Three independent experiments were carried out, with each concentration having three repeats […].

The test system of another data set is HEK 293T cells. Nature of the data set: MTT assay, human embryonic kidney (HEK 293T) cells. It is filed as cell-based. Particulars: for IC50: MTT, 72 h incubation. The procedure: as §1
On day 1, 5000 cells (of the appropriate cell line) were plated in each well of a 96-well plate. The cells were then left to attach to the bottom of the wells overnight. On day 2, the compounds of interest were added (at different concentrations, 0.2–100 μM). The cells were incubated with the compounds for 72 h. The volume of each well at this stage was 200 μL. If DMSO was used to aid solubilization of the compounds, then the same amount of DMSO was also present in control wells. On day 5, a solution of 3-(4,5-dimethylthiazol-2-yl)-2,5-diphenyltetrazolium bromide (MTT) (4 mg/mL) predissolved in PBS was added to each well of the 96-well plate (20 μL). After a further 4 h incubation, the media/MTT solution was removed and the resultant purple formazan crystals were dissolved in DMSO (200 μL). The absorption of each well was measured using a plate reader at 550 nm. The absorption values were normalised according to the control wells and dose—response curves were plotted to determine the IC50 values. Three independent experiments were carried out, with each concentration having six repeats (n = 18).

Data set [5] concerns HMLER-shEcad cells. Nature of the data set: MTT assay, breast CSC-like cells (HMLER-shEcad). The format is cell-based, human. Particulars: 72 h incubation. The procedure: as §1, §2
Data set [6] can be described thus: LogP by shake-flask method with UV-Vis spectroscopy. The format is physicochemical. Particulars: octanol/water, 100 µM, shaken 24 h, room temperature. The procedure: The shake-flask method in combination with UV-Vis spectroscopy was used to determine the LogP values of 2–5. Briefly, to a suspension of water (500 μL) and octanol (500 μL), 2–5 was added, giving a final concentration of 100 µM. The mixture was shaken for 24 h (room temperature). Using centrifugation, the water and octanol layers were separated and the concentration of 2–5 in each layer was determined using UV-Vis spectroscopy.

For data set [7], the system named is HMLER-shEcad mammospheres. Nature of the data set: Mammosphere formation assay (number and size of mammospheres). It is filed as cell-based, human. Particulars: HMLER-shEcad cells in suspension, treated at respective IC20 value for 5 days. Here is the method: as §3
For data set [8], the system named is HMLER-shEcad mammospheres. Also noted: method as in PMID 26806362, PMID 27774561, PMID 28932846. Particulars: 120 h incubation, read-out: Mammosphere IC50; cited from earlier work.
Data set [9] relates to HMLER-shEcad mammospheres. Also noted: method as in PMID 26865551. Particulars: previous work; cited from earlier work.
A short description of data set [10]: UV-Vis stability study in MEGM/DMSO. It is filed as physicochemical. Particulars: 50 µM in MEGM/DMSO (200:1), 24 h at 37 °C.
Data set [11] can be described thus: UV-Vis stability study in PBS:DMSO. It is filed as physicochemical. Particulars: 50 µM in PBS:DMSO (200:1), 24 h at 37 °C. The text has this: The shake-flask method was used to determine the lipophilicity (LogP) of 2–5. This involves determining the amount of a given compound partitioned between octanol and water using UV-Vis spectroscopy. […] The size of the polypyridyl ligand has a clear effect on lipophilicity, with LogP values increasing according to the following order; 2 < 3 < 4 < 5. The hydrophobicity of 2–5 implies that the zinc(II) complexes are likely to easily enter cells. […] The metal-perturbed π-π* and metal-to-ligand charge-transfer (MLCT) absorption bands of 2 (50 µM) in PBS:DMSO (200:1) were constant for 24 h at 37 °C (Figure S7), indicative of stability.

Read-outs that look alike come from different tables or passages of the source.

As for `N.N.O=C([O-])C1(C(=O)[O-])CCC1.[Pt+2]` [carboplatin], the 50% inhibitory concentration (IC50) was 67.3 ± 2.8 µM in the data set on HMLER cells [1] and 72.3 ± 7.9 µM in the data set on HMLER-shEcad cells [2].

For the molecule “Zn(indomethacin)2(1,10-phenanthroline) [Compound 3]”, the IC50 with HMLER cells [3] is 1.1 ± 0.05 µM; in data set [4], 44.1 ± 0.6 µM; in the data set with HEK 293T cells, 2.3 ± 0.1 µM; with HMLER-shEcad cells [5], 1.1 ± 0.08 µM. In addition, the LogP in data set [6] was 0.97.

As to `N.N.[Cl][Pt][Cl]` [cisplatin], the results for the IC50 in the data set on HMLER cells [1] and in the data set on HMLER-shEcad cells [2] were 3.4 ± 0.5 µM and 4.9 ± 0.4 µM, respectively.

In the case of `CC[C@@H](C(=O)[C@@H](C)[C@@H](O)[C@H](C)[C@@H]1O[C@@H]([C@@H](CC)C(=O)O)CC[C@@H]1C)[C@H]1O[C@]2(C=C[C@@H](O)[C@]3(CC[C@@](C)([C@H]4CC[C@](O)(CC)[C@H](C)O4)O3)O2)[C@H](C)C[C@@H]1C` [salinomycin], the IC50 in the data set on HMLER cells [1] is 11.4 ± 0.4 µM; in the data set with HMLER-shEcad cells [2], 4.2 ± 0.3 µM; in data set [8], 18.5 ± 1.5 µM. Further, in [7], the “decrease in mammospheres formed” value was 37%.

In the case of `COc1ccc2c(c1)c(CC(=O)O)c(C)n2C(=O)c1ccc(Cl)cc1` [indomethacin], the “toxicity towards CSC-like cells” value in the data set on HMLER-shEcad cells [2] (previous work) is “non-toxic”. For the same molecule, the mammosphere inhibitory effect entry in data set [9] is given as “poor”.

Turning to “Zn(indomethacin)2(2,2′-bipyridine) [Compound 2]”, the IC50 in the data set on HMLER cells [3] was 1.2 ± 0.02 µM; in data set [4] it was above 133 µM; with HEK 293T cells, 20 ± 3.9 µM; in the data set on HMLER-shEcad cells [5], 0.7 ± 0.04 µM. Moreover, in data set [10], the “stability: UV-Vis absorption bands” value is listed as “unaltered”. Further, the “fold less potent toward HEK 293T cells than HMLER and HMLER-shEcad cells” value in the data set with HEK 293T cells (ratio of IC50 values, p < 0.05) is “up to 17 fold”. Moreover, the “stability: metal-perturbed π-π* and MLCT absorption bands” value in data set [11] is given as “constant”. Besides, the LogP in data set [6] is listed as 0.89.
